{"source": "patent US10023565B2", "about": "“N,N′ substituted piperidinamine compounds, and preparation method and usage thereof” (Institute of Pharmacology and Toxicology Academy of …, priority 2013, dated 2018)", "experiment": "Mice pharmacokinetic evaluation (LC-MS/MS of plasma)", "type": "in vivo, ICR mice", "details": "for Cmax: read-out: Cmax; for Plasma concentration of active compound: listed as Mol", "protocol": "Mice pharmacokinetic evaluation of the compound of Example 36 according to the method described below\nICR mice, SPS grade, male, weighed […], license number SCXK (Beijing) 2012-0001, purchased from Beijing Vital River Laboratory Animal Technology Co. Ltd.\nChromatographic conditions: Analytical column: Capcell Pak MG, 5 μm particle size, 50×2.0 mm I.D. (Shiseido Co.), connected with C18 guard column, 4×3.0 mm I.D. (PhenomenexCo., USA), column temperature 25° C., mobile phase: acetonitrile −2 mM ammonium acetate (65:35, v/v), flow rate 0.3 ml/min, internal standard: loratadine.\nMS conditions: Electrospray ionization source (Turbo Ionspray source), positive ion mode detection; spray voltage 4500 V; source temperature 400° C.; nebulizer gas (NEB) 8; curtain gas (CUR) 10; collision gas (CAD) 4; scanning mode: multiple reaction monitoring (MRM), ion reactions for quantitative analysis: m/z 354.4→m/z 154.1 (Mol, CE 43 V) and m/z 383→m/z 337 (internal standard loratadine, CE 32 V), scanning time 150 msec.\nTo 50 μl of plasma, were added 10 μl of internal standard solution (125 ng/ml aqueous solution of loratadine), and 500 μl of n-hexane-dichloromethane-isopropanol (100:50:5, v/v/v); they were uniformly mixed, followed by vortexing for 3 min, and centrifuging for 10 min (3000 rpm); the supernatant was taken and blow dried with air streamat 40° C.; the residue was dissolved with 150 μl […], and subjected to LC-MS/MS analysis.\n30 ICR male mice were randomly divided into […], five mices each group, including Mol 10 mg/kg oral group and 1.0 mg/kg tail intravenous injection group. For oral group, before administration, the animals were fasted for 12 h, with free access to water; 0.08, 0.25, 0.5, 1, 2, 4, 6, 8, 12 and 24 h after intragastrical administration, 0.1 ml of orbital venous sinus blood was taken, placed in anticoagulation tube containing heparin sodium, and subjected to 3000 g centrifugation for 15 min; and then, the plasma was taken and stored in a −20° C. refrigerator. […]\nPharmacokinetic parameters were calculated using non-compartment model of Winnonlin® software (Version 5.2.1, USA). Cmax is the measured maximum plasma concentration, Tmax is time to peak plasma concentration after oral administration, t1/2 is drug terminal elimination halflife, MRT is average residence time of drug in vivo, the area AUC0-t under plasma concentration—time curve is calculated by trapezoidal method.\nBioavailability is calculated as follows: […]\nAUC: Area (h*ng/ml) under the curve; D: dose (mg/kg)", "key": {"[1]": {"details": "male, ICR, mouse, plasma, po, 10 mg/kg, Po 10 mg/kg, Mean ± SD, n = 3"}, "[2]": {"details": "male, ICR, mouse, plasma, po, 10 mg/kg, Po 10 mg/kg, individual mice 1-3"}, "[3]": {"details": "male, ICR, mouse, plasma, po, 10 mg/kg, oral 10 mg/kg, Mean, read-out: Plasma concentration of active compound"}, "[4]": {"details": "male, ICR, mouse, plasma, po, 10 mg/kg, oral 10 mg/kg, individual mice 1-3, read-out: Plasma concentration of active compound"}}, "note": "Several values for one entry are separate records, joined by “and”; a condition that tells them apart may be missing. Equal entries are not always repeated. Where two headings read alike, the source gives them in different places."}
{"smiles": "CSc1nccc(N2CCC(N(C)Cc3ccc(C#N)cc3)CC2)n1", "note": "[Example 36, N-methyl-N-(4-cyanobenzyl)-N-[1-(2-methylthiopyrimidin-4-yl)piperidin-4-yl]amine]", "values": [{"measurement": "concentration at 0.17 h", "setting": "male, ICR, mouse, plasma, iv, 1 mg/kg, intravenous 1.0 mg/kg, Mean, read-out: Plasma concentration of active compound", "value": 62.8, "unit": "ng/mL"}, {"measurement": "concentration at 0.17 h", "setting": "male, ICR, mouse, plasma, iv, 1 mg/kg, intravenous 1.0 mg/kg, individual mice 4-6, read-out: Plasma concentration of active compound", "value": 79.6, "unit": "ng/mL"}, {"measurement": "concentration at 0.5 h", "setting": "male, ICR, mouse, plasma, iv, 1 mg/kg, intravenous 1.0 mg/kg, 0.5 h, Mean, read-out: Plasma concentration of active compound", "value": 31.5, "unit": "ng/mL"}, {"measurement": "concentration at 1 h", "setting": "male, ICR, mouse, plasma, iv, 1 mg/kg, intravenous 1.0 mg/kg, 1.0 h, Mean, read-out: Plasma concentration of active compound", "value": 7.02, "unit": "ng/mL"}, {"measurement": "concentration at 2 h", "setting": "male, ICR, mouse, plasma, iv, 1 mg/kg, intravenous 1.0 mg/kg, 2.0 h, Mean, read-out: Plasma concentration of active compound", "value": 1.77, "unit": "ng/mL"}, {"measurement": "concentration at 4 h", "setting": "male, ICR, mouse, plasma, iv, 1 mg/kg, intravenous 1.0 mg/kg, 4.0 h, Mean, read-out: Plasma concentration of active compound", "value": 2.26, "unit": "ng/mL"}, {"measurement": "concentration at 4 h", "setting": "male, ICR, mouse, plasma, iv, 1 mg/kg, intravenous 1.0 mg/kg, 4.0 h, individual mice 4-6, read-out: Plasma concentration of active compound", "value": 2.3, "unit": "ng/mL"}, {"measurement": "concentration at 6 h", "setting": "male, ICR, mouse, plasma, iv, 1 mg/kg, intravenous 1.0 mg/kg, 6.0 h, Mean, read-out: Plasma concentration of active compound", "value": 7.53, "unit": "ng/mL"}, {"measurement": "concentration at 6 h", "setting": "male, ICR, mouse, plasma, iv, 1 mg/kg, intravenous 1.0 mg/kg, 6.0 h, individual mice 4-6, read-out: Plasma concentration of active compound", "value": 7.53, "unit": "ng/mL"}, {"measurement": "concentration at 8 h", "setting": "male, ICR, mouse, plasma, iv, 1 mg/kg, intravenous 1.0 mg/kg, 8.0 h, Mean, read-out: Plasma concentration of active compound", "value": 0.84, "unit": "ng/mL"}, {"measurement": "concentration at 8 h", "setting": "male, ICR, mouse, plasma, iv, 1 mg/kg, intravenous 1.0 mg/kg, 8.0 h, individual mice 4-6, read-out: Plasma concentration of active compound", "value": 0.7, "unit": "ng/mL"}, {"measurement": "bioavailability", "setting": "male, ICR, mouse, plasma, oral, 10 mg/kg, Po 10 mg/kg vs IV 1.0 mg/kg, Mean ± SD, n = 3, read-out: F (absolute bioavailability)", "value": "55.5 ± 10.9", "unit": "%"}, {"measurement": "AUC(0-inf)", "setting": "[1]", "value": "280 ± 55.8", "unit": "ng·h/mL"}, {"measurement": "AUC(0-t)", "setting": "[1]", "value": "275 ± 54.1", "unit": "ng·h/mL"}, {"measurement": "half-life", "setting": "[1]", "value": "2.72 ± 2.47", "unit": "h"}, {"measurement": "Cmax", "setting": "[1]", "value": "260 ± 63.2", "unit": "ng/mL"}, {"measurement": "MRT last", "setting": "male, ICR, mouse, plasma, po, 10 mg/kg, Po 10 mg/kg, Mean ± SD, n = 3, read-out: MRT0-t", "value": "1.58 ± 0.86", "unit": "h"}, {"measurement": "MRT inf", "setting": "male, ICR, mouse, plasma, po, 10 mg/kg, Po 10 mg/kg, Mean ± SD, n = 3, read-out: MRT0-∞", "value": "1.95 ± 1.42", "unit": "h"}, {"measurement": "Tmax", "setting": "male, ICR, mouse, plasma, po, 10 mg/kg, Po 10 mg/kg, Mean ± SD, n = 3, read-out: Tmax", "value": "0.44 ± 0.49", "unit": "h"}, {"measurement": "AUC(0-inf)", "setting": "[2]", "value": 216, "unit": "ng·h/mL"}, {"measurement": "AUC(0-t)", "setting": "[2]", "value": 214, "unit": "ng·h/mL"}, {"measurement": "Cmax", "setting": "[2]", "value": 197, "unit": "ng/mL"}, {"measurement": "concentration at 0.08 h", "setting": "male, ICR, mouse, plasma, po, 10 mg/kg, oral 10 mg/kg, 0.08 h, Mean, read-out: Plasma concentration of active compound", "value": 141, "unit": "ng/mL"}, {"measurement": "concentration at 0.25 h", "setting": "male, ICR, mouse, plasma, po, 10 mg/kg, oral 10 mg/kg, 0.25 h, Mean, read-out: Plasma concentration of active compound", "value": 203, "unit": "ng/mL"}, {"measurement": "concentration at 0.5 h", "setting": "male, ICR, mouse, plasma, po, 10 mg/kg, oral 10 mg/kg, 0.50 h, Mean, read-out: Plasma concentration of active compound", "value": 97.5, "unit": "ng/mL"}, {"measurement": "concentration at 1 h", "setting": "male, ICR, mouse, plasma, po, 10 mg/kg, oral 10 mg/kg, 1.0 h, Mean, read-out: Plasma concentration of active compound", "value": 147, "unit": "ng/mL"}, {"measurement": "concentration at 2 h", "setting": "male, ICR, mouse, plasma, po, 10 mg/kg, oral 10 mg/kg, 2.0 h, Mean, read-out: Plasma concentration of active compound", "value": 23.5, "unit": "ng/mL"}, {"measurement": "concentration at 4 h", "setting": "male, ICR, mouse, plasma, po, 10 mg/kg, oral 10 mg/kg, 4.0 h, Mean, read-out: Plasma concentration of active compound", "value": 7.75, "unit": "ng/mL"}, {"measurement": "concentration at 6 h", "setting": "male, ICR, mouse, plasma, po, 10 mg/kg, oral 10 mg/kg, 6.0 h, Mean, read-out: Plasma concentration of active compound", "value": 7.36, "unit": "ng/mL"}, {"measurement": "concentration at 8 h", "setting": "male, ICR, mouse, plasma, po, 10 mg/kg, oral 10 mg/kg, 8.0 h, Mean, read-out: Plasma concentration of active compound", "value": 2.71, "unit": "ng/mL"}, {"measurement": "concentration at 12 h", "setting": "[3]", "value": 0.5, "unit": "ng/mL"}, {"measurement": "concentration at 12 h", "setting": "[4]", "value": 0.5, "unit": "ng/mL"}, {"measurement": "concentration at 24 h", "setting": "[3]", "value": 1.32, "unit": "ng/mL"}, {"measurement": "concentration at 24 h", "setting": "[4]", "value": 1.32, "unit": "ng/mL"}, {"measurement": "Plasma concentration of active compound", "setting": "oral 10 mg/kg, 0.08 h, individual mice 1-3, 10 mg/kg", "value": "196.99 ng/mL and 152.22 ng/mL and 72.70 ng/mL"}, {"measurement": "Plasma concentration of active compound", "setting": "oral 10 mg/kg, 0.25 h, individual mice 1-3, 10 mg/kg", "value": "126.87 ng/mL and 158.18 ng/mL and 323.37 ng/mL"}, {"measurement": "Plasma concentration of active compound", "setting": "oral 10 mg/kg, 0.50 h, individual mice 1-3, 10 mg/kg", "value": "41.24 ng/mL and 119.50 ng/mL and 131.86 ng/mL"}, {"measurement": "Plasma concentration of active compound", "setting": "oral 10 mg/kg, 1.0 h, individual mice 1-3, 10 mg/kg", "value": "107.54 ng/mL and 260.48 ng/mL and 71.98 ng/mL"}, {"measurement": "Plasma concentration of active compound", "setting": "oral 10 mg/kg, 2.0 h, individual mice 1-3, 10 mg/kg", "value": "33.99 ng/mL and 12.86 ng/mL and 23.69 ng/mL"}, {"measurement": "Plasma concentration of active compound", "setting": "oral 10 mg/kg, 4.0 h, individual mice 1-3, 10 mg/kg", "value": "7.47 ng/mL and 1.17 ng/mL and 14.60 ng/mL"}, {"measurement": "Plasma concentration of active compound", "setting": "oral 10 mg/kg, 6.0 h, individual mice 1-3, 10 mg/kg", "value": "1.28 ng/mL and 13.43 ng/mL"}, {"measurement": "Plasma concentration of active compound", "setting": "oral 10 mg/kg, 8.0 h, individual mice 1-3, 10 mg/kg", "value": "0.54 ng/mL and 4.88 ng/mL"}]}
